We go through eleven molecules from patent US20100048950A1 (BOEHRINGER INGELHEIM INTERNATIONAL GMBH, priority 2007, published 2010).

Molecules are shown by their SMILES.

The target in series [1] is T1, human glucocorticoid receptor (GR) complex (Homo sapiens, UniProt P04150).
T1 construct: made in house; host or cells: insect expression system (baculovirus lysate)
T1 sequence (P04150 1-777): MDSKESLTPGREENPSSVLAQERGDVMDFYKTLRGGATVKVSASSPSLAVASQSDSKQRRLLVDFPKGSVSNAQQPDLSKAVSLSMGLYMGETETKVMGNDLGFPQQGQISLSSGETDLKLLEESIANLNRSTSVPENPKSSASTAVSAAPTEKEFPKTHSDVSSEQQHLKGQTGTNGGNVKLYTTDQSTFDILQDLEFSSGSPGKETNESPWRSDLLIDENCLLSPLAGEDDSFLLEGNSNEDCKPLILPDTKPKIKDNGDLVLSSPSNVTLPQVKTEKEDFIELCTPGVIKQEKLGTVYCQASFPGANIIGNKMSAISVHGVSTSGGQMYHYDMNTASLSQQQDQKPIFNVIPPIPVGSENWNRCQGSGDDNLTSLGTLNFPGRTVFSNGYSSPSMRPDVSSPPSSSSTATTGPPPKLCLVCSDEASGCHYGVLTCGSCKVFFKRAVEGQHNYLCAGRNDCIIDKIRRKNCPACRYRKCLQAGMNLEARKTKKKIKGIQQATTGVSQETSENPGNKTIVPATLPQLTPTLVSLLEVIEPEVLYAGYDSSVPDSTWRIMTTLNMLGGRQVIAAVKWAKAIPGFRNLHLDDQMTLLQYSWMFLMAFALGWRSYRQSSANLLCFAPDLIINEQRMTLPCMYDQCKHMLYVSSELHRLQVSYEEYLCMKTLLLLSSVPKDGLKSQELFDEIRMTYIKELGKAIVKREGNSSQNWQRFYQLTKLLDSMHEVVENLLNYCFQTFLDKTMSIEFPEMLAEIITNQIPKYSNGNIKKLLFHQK
In words: Glucocorticoid receptor competitive binding assay (fluorescence polarization). The following applies: competition with TAMRA-labeled dexamethasone, read-out: potent activity (IC50) in the GR binding assay. In short, it runs like this: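 Human GR complex in baculovirus insect-cell lysate (1:170) competed against 15 nM TAMRA-dexamethasone stock for 1 h at room temperature. Buffer: TES/KCl/molybdate/EDTA/CHAPS/glycerol/DTT, pH 7.4, 1% DMSO final. FP read at 550/580 nm; IC50 from 4-parameter logistic fit.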
In general terms: In fluorescence polarisation assays a small probe gives low polarisation when free and higher when bound to something large.

For another series, the system named is glucocorticoid receptor. In words: Agonist activity in one or more of the above assays (GR cell assays). In kind it is cell-based. The following applies: in one or more of the above assays (assay not specified). The procedure:
Dexamethasone, a synthetic ligand to the glucocorticoid receptor (GR), induces expression of aromatase in human foreskin fibroblast cells. The activity of aromatase is measured by the conversion of testosterone to estradiol in culture media.
Human foreskin fibroblast cells (ATCC Cat. No. CRL-2429, designation CCD112SK) are plated on 96 well plates at 50,000 cells per well 5 days before use, in Iscove's Modified Dulbecco's Media (GibcoBRL Life Technologies Cat No. 12440-053) supplemented with 10% charcoal filtered FBS (Clonetech Cat No. SH30068) and Gentamycin (GibcoBRL Life Technologies Cat. No. 15710-064). On the day of the experiment, the media in the wells is replaced with fresh media. Cells are treated with test compounds to final concentrations of 10^−5 M to […], and testosterone to a final concentration of 300 ng/mL. Each well has a total volume of 100 μL. Samples are made in duplicates. Control wells include: (a) wells that receive testosterone only, and (b) wells that receive testosterone plus 2 μM of dexamethasone to provide maximum induction of aromatase. Plates are incubated at 37° C. overnight (15 to 18 hours), and supernatants are harvested at the end of incubation. Estradiol in the supernatant is measured using ELISA kits for estradiol (made by ALPCO, obtained from American Laboratory Products Cat. No. 020-DR-2693) according to the manufacture's instruction. The amount of estradiol is inversely proportional to the ELISA signals in each well. The extent of aromatase induction by test compounds is expressed as a relative percentage to dexamethasone. EC50 values of test compounds are derived by non-linear curve fitting.
Human foreskin fibroblast cells produce IL-6 in response to stimulation by pro-inflammatory cytokine IL-1.
Human foreskin fibroblast cells (ATCC Cat. No. CRL-2429) are plated on 96 well plates at 5,000 cells per well the day before use, in Iscove's Modified Dulbecco's Media (GibcoBRL Life Technologies Cat. No. 12440-053) supplemented with 10% charcoal filtered FBS (Clonetech Cat. No. SH30068) and Gentamycin (GibcoBRL Life Technologies Cat. No. 15710-064). On the next day, media in the wells is replaced with fresh media. Cells are treated with IL-1 (rhIL-1α, R&D Systems Cat. No. 200-LA) to a final concentration of 1 ng/mL, and with test compounds to final concentrations of 10^−5 M to 10^−8 M, in a total volume of 200 μL per well. Samples are done in duplicates. […] Positive control wells receive IL-1 only and represent maximum (or 100%) amount of IL-6 production. Plates are incubated at 37° C. overnight (15 to 18 hours), and supernatants are harvested at the end of incubation. IL-6 levels in the supernatants are determined by the ELISA kits for IL-6 (MedSystems Diagnostics GmbH, Vienna, Austria, Cat. No. BMS213TEN) according to manufacture's instructions. The extent of inhibition of IL-6 by test compounds is expressed in percentage relative to positive controls. IC50 values of test compounds are derived by non-linear curve fitting.
Evaluation of agonist or antagonist activity of compounds binding to the glucocorticoid receptor may be determined by any of the assays.
Testing of compounds for agonist or antagonist activity in induction of tyrosine aminotransferase (TAT) in rat hepatoma cells.
H4-II-E-C3 cells were incubated overnight in 96 well plates (20,000 cells/100 μL/well) in MEM medium containing 10% heat inactivated FBS and 1% nonessential amino acids. On the next day, cells were stimulated with the indicated concentrations of dexamethasone or test compound (dissolved in DMSO, final DMSO concentration 0.2%) for 18 hours. Control cells were treated with 0.2% DMSO. After 18 hours, the cells were lysed in a buffer containing 0.1% Triton X-100 and the TAT activity was measured in a photometric assay using tyrosine and alpha-ketoglutarate as substrates. […]

As to `Cc1cc(C)c(S(=O)(=O)NC(CSc2cccc3ccccc23)C(F)(F)F)c(C)c1` (centres unmarked) [2,4,6-Trimethyl-N-[2,2,2-trifluoro-1-(naphthalen-1-ylsulfanylmethyl)ethyl]benzenesulfonamide], the concentration for half-maximal inhibition (IC50) (as a rule, the point on the concentration scale where inhibition reaches its midpoint) in series [1] was ≤ 100 nM. Besides, in the series with glucocorticoid receptor, the “activity as an agonist of the glucocorticoid receptor function” value (“activity” for short) was “activity as an agonist”. The matching figures for `CC[C@@H](CNc1cccc2ccccc12)NS(=O)(=O)c1c(N)cc(Cl)cc1Cl` [2-Amino-4,6-dichloro-N-[(S)-1-(naphthalen-1-ylaminomethyl)propyl]benzenesulfonamide]: ≤ 100 nM and “activity as an agonist”.

Consider `Cc1cc(C)c(S(=O)(=O)NC(CNc2ccc(Cl)c3ccccc23)C(F)(F)F)c(C)c1` (centres unmarked) [N-{1-[(4-Chloronaphthalen-1-ylamino)methyl]-2,2,2-trifluoroethyl}-2,4,6-trimethylbenzenesulfonamide], for which the IC50 in series [1] is ≤ 100 nM. For the same molecule, the “activity” value in the series with glucocorticoid receptor was “activity as an agonist”. As for `Cc1cc(C)c(S(=O)(=O)NC(CNc2cccc3c(C#N)cccc23)C(F)(F)F)c(C)c1` (centres unmarked) [N-{1-[(5-Cyanonephthalen-1-ylamino)methyl]-2,2,2-trifluoroethyl}-2,4,6-trimethyl-benzenesulfonamide], the IC50 in series [1] was ≤ 100 nM. Also, the “activity” value in the series with glucocorticoid receptor is “activity as an agonist”. As for `Cc1cc(C)c(S(=O)(=O)NC(CNc2cccc3ccccc23)C(F)(F)F)c(C)c1` (centres unmarked) [2,4,6-Trimethyl-N-[2,2,2-trifluoro-1-(naphthalen-1-ylaminomethyl)ethyl]benzenesulfonamide], in series [1], the IC50 is ≤ 100 nM. In the series with glucocorticoid receptor, the “activity” value is reported as “activity as an agonist”. As for `CC[C@@H](CNc1ccc(C)cc1C)NS(=O)(=O)c1c(N)cc(Cl)cc1Cl`, the melting point (commonly the temperature of the solid-liquid transition) was 151 °C.

Turning to `CC[C@@H](CNc1ccc(C)cc1C)NS(=O)(=O)c1c(N)cc(Cl)cc1Cl` [2-Amino-4,6-dichloro-N—{(S)-1-[(2,4-dimethylphenylamino)methyl]propyl}benzenesulfonamide], the IC50 in series [1] was ≤ 100 nM. In the series with glucocorticoid receptor, the “activity” value was “activity as an agonist”.

In the case of `Cc1cc(C)c(S(=O)(=O)NC(COc2ccc3c(c2)CCC3)C(F)(F)F)c(C)c1` (centres unmarked) [2,4,6-Trimethyl-N-[2,2,2-trifluoro-1-(indan-5-yloxymethyl)ethyl]benzenesulfonamide], the concentration for half-maximal inhibition (IC50) in series [1] was ≤ 100 nM. As to `Cc1cc(C)c(S(=O)(=O)NC(CSc2ccc(F)cc2Cl)C(F)(F)F)c(C)c1` (centres unmarked) [N-[1-(2-Chloro-4-fluorophenylsulfanylmethyl)-2,2,2-trifluoroethyl]-2,4,6-trimethylbenzenesulfonamide], the IC50 in series [1] is ≤ 100 nM.

On to `Cc1cc(C)c(S(=O)(=O)NC(CSc2ccc(Cl)cc2Cl)C(F)(F)F)c(C)c1` (centres unmarked) [N-[1-(2,4-Dichlorophenylsulfanylmethyl)-2,2,2-trifluoroethyl]-2,4,6-trimethylbenzenesulfonamide], for which the IC50 in series [1] is ≤ 100 nM. For the molecule `Cc1ccc(OCC(NS(=O)(=O)c2c(C)cc(C)cc2C)C(F)(F)F)cc1` (centres unmarked) [2,4,6-Trimethyl-N-(2,2,2-trifluoro-1-p-tolyloxymethylethyl)benzenesulfonamide], the IC50 in series [1] is ≤ 100 nM.
